The record followed here is patent US20230047905A1, “COMPOUNDS AND COMPOSITIONS FOR TREATING CONDITIONS ASSOCIATED WITH STING ACTIVITY” (IFM Due, Inc., priority 2018, published 2023).

Each structure is given as a SMILES string. Where only a bound is given, the exact number is not on record here.

For the first assay, the system named is Human STING. Description: STING reporter assay (luciferase) in THP1-Dual KO-IFNAR2 cells activated with 2'3'cGAMP. The class given is cell-based. Conditions: 15 μM 2'3'cGAMP, 24h, class symbols. How it is done:
STING Pathway Modulation by the Compounds Described Herein was Measured Using THP1-Dual™ Cells (KO-IFNAR2).
THP1-Dual™ KO-IFNAR2 Cells (obtained from invivogen) were maintained in RPMI, 10% FCS, 5 ml P/S, 2 mM L-glut, 10 mM Hepes, and 1 mM sodium pyruvate. Compounds were spotted in empty 384 well tissue culture plates (Greiner 781182) by Echo for a final concentration of 0.0017-100 μM. Cells were plated into the TC plates at […], 2×10E6 cells/mL. For activation with STING ligand, 2′3′cGAMP (MW 718.38, obtained from Invivogen), was prepared in Optimem media.
The following solutions were prepared for each 1×384 plate: • Solution A: 2 mL Optimem with one of the following stimuli: • 60 uL of 10 mM 2′3′cGAMP ->150 μM stock • Solution B: 2 mL Optimem with 60 μL Lipofectamine 2000->Incubate 5 min at RT
2 mL of solution A and 2 ml Solution B was mixed and incubated for 20 min at room temperature (RT). 20 μL of transfection solution (A+B) was added on top of the plated cells, with a final 2′3′cGAMP concentration of 15 μM. The plates were then centrifuged immediately at 340 g for 1 minute, after which they were incubated at 37° C., 5% CO2, >98% humidity for 24h. Luciferase reporter activity was then measured. EC50 values were calculated by using standard methods known in the art.
Luciferase reporter assay: 10 μL of supernatant from the assay was transferred to white 384-plate with flat bottom and squared wells. One pouch of QUANTI-Luc™ Plus was dissolved in 25 mL of water. 100 μL of QLC Stabilizer per 25 mL of QUANTI-Luc™ Plus solution was added. 50 μL of QUANTI-Luc™ Plus/QLC solution per well was then added. Luminescence was measured on a Platereader (e.g., Spectramax I3X (Molecular Devices GF3637001)).
Luciferase reporter activity was then measured. EC50 or IC50 values were calculated by using standard methods known in the art.
The molecule `Cc1ccccc1S(N)(=O)=Nc1c[nH]c2ccccc12` (racemic) [Compound 110a] gave an IC50 of 5 to 100 µM. With `Cc1ccccc1S(N)(=O)=Nc1c[nH]c2ccccc12` (racemic) [Compound 110b], the 50% inhibitory concentration (IC50) lay in the range of 1 to 5 µM.

Molecule `Cc1ccc(S(N)(=O)=Nc2c[nH]c3ccccc23)cc1` (racemic) [Compound 111a] gave an IC50 of 1 to 5 µM. The same measure, in the same setting: the same measure for `NS(=O)(=Nc1c[nH]c2cc(F)c(F)cc12)c1ccc(C(F)(F)F)cc1` (racemic) [Compound 2a]: 0.2 to 1 µM; for `NS(=O)(=Nc1c[nH]c2cc(F)c(F)cc12)c1ccc(C(F)(F)F)cc1` (racemic) [Compound 2b]: 1 to 5 µM; for `Cc1ccc(S(N)(=O)=Nc2c[nH]c3ccccc23)cc1` (racemic) [Compound 111b]: 5 to 100 µM.

The assay is the same for the next values; noted with them: Homo sapiens, THP1-Dual, 24 h, 15 μM 2'3'cGAMP, class symbols.
Regarding `N[S@@](=O)(=Nc1c[nH]c2ccccc12)c1ccc(C(F)(F)F)cc1` (single isomer, unassigned) [Compound 1b, (R or S)—N-(1H-indol-3-yl)-4-(trifluoromethyl)benzenesulfonimidamide], the IC50 was 0.2 to 1 µM.

Regarding `CNS(=O)(=Nc1c[nH]c2ccccc12)c1ccc(C(F)(F)F)cc1` (stereo not drawn) [Compound 112, N′-(1H-indol-3-yl)-N-methyl-4-(trifluoromethyl)benzenesulfonimidamide], the IC50 lay within 5 to 100 µM. Same read-out and setting: with `N#Cc1ccc2[nH]cc(N=S(N)(=O)c3ccc(C4CC4)cc3)c2c1` (stereo not drawn) [Compound 115] the figure was 5 to 100 µM; with `CCCCc1ccc(S(=N)(=O)Nc2ccc3cc[nH]c3c2)cc1` (stereo not drawn) [Compound 101], 5 to 100 µM; with `CNS(=O)(=Nc1cn(C)c2ccccc12)c1ccc(C(F)(F)F)cc1` (stereo not drawn) [Compound 105, N-methyl-N′-(1-methyl-1H-indol-3-yl)-4-(trifluoromethyl)benzenesulfonimidamide], 5 to 100 µM. On the same count and under the same terms, with `Cc1ccc(S(N)(=O)=Nc2c[nH]c3ccccc23)cc1` (stereo not drawn) [Compound 111] the figure was 5 to 100 µM. The same measure, in the same setting: with `NS(=O)(=Nc1c[nH]c2ccccc12)c1ccc(F)cc1` (stereo not drawn) [Compound 108] the figure was 5 to 100 µM.

For `NS(=O)(=Nc1c[nH]c2cc(F)c(F)cc12)c1ccc(C(F)(F)F)cc1` (stereo not drawn) [Compound 2], the concentration for half-maximal inhibition (IC50) was in the range of 1 to 5 µM. Take `CCCCc1ccc(S(N)(=O)=Nc2c[nH]nc2-c2ccccc2)cc1` (stereo not drawn) [Compound 113]: the IC50 fell in the range of 5 to 100 µM.

Take `NS(=O)(=Nc1c[nH]c2ccccc12)c1ccc(Cl)cc1` (racemic) [Compound 109a]: the IC50 fell in the range of 1 to 5 µM.

As for `CN(C)S(=O)(=Nc1c[nH]c2ccccc12)c1ccc(C(F)(F)F)cc1` (stereo not drawn) [Compound 36, N′-(1H-indol-3-yl)-N,N-dimethyl-4-(trifluoromethyl)benzenesulfonimidamide], the IC50 fell in the range of 5 to 100 µM. Same read-out and setting: the same measure for `CS(=O)(=O)n1cc(N=S(N)(=O)c2ccc(C(F)(F)F)cc2)c2ccccc21` (stereo not drawn) [Compound 104]: 5 to 100 µM; for `CC(C)OC(=O)NS(=O)(=Nc1c[nH]c2ccccc12)c1ccc(C(F)(F)F)cc1` (stereo not drawn) [Compound 102]: 5 to 100 µM. Still for that read-out and setting: with `NS(=O)(=Nc1c[nH]c2ccccc12)c1ccc(F)cc1` (racemic) [Compound 108a] the figure was 5 to 100 µM; with `N#Cc1cnc2[nH]cc(N=S(N)(=O)c3ccc(C(F)(F)F)cc3)c2c1` (stereo not drawn) [Compound 114], 5 to 100 µM. Same read-out and setting: with `NS(=O)(=Nc1c[nH]c2ncc(F)cc12)c1ccc(C(F)(F)F)cc1` (stereo not drawn) [Compound 117] the figure was 5 to 100 µM.

`CCCCc1ccc(S(N)(=O)=Nc2c[nH]nc2-c2ccccc2)cc1` (racemic) [Compound 113a] returned an IC50 of 5 to 100 µM. As for `CCCCc1ccc(S(=N)(=O)Nc2ccc3[nH]ccc3c2)cc1` (stereo not drawn) [Compound 53], the IC50 fell in the range of 5 to 100 µM. Still for that read-out and setting: the same measure for `Cc1cccc(S(N)(=O)=Nc2c[nH]c3ccccc23)c1` (stereo not drawn) [Compound 106]: 5 to 100 µM. As to `N#Cc1ccc2[nH]cc(N=S(N)(=O)c3ccc(C4CC4)cc3)c2c1` (racemic) [Compound 115a], the IC50 fell in the range of 5 to 100 µM. Same read-out and setting: the same measure for `NS(=O)(=Nc1c[nH]c2ccccc12)c1ccc(C(F)(F)F)cc1` (stereo not drawn) [Compound 1, N′-(1H-indol-3-yl)-4-(trifluoromethyl)benzenesulfonimidamide]: 0.2 to 1 µM.

The molecule `N#Cc1ccc2[nH]cc(N=S(N)(=O)c3ccc(C(F)(F)F)cc3)c2c1` (racemic) [Compound 5a] yielded an IC50 of 5 to 100 µM.

Take `NS(=O)(=Nc1c[nH]c2ncc(F)cc12)c1ccc(C(F)(F)F)cc1` (racemic) [Compound 117a]: the IC50 was in the range of 5 to 100 µM. Same read-out and setting: the same measure for `NS(=O)(=Nc1c[nH]c2ccccc12)c1ccc(Cl)cc1` (stereo not drawn) [Compound 109]: 1 to 5 µM.

`N[S@](=O)(=Nc1c[nH]c2ccccc12)c1ccc(C(F)(F)F)cc1` (single isomer, unassigned) [Compound 1a, (S or R)—N-(1H-indol-3-yl)-4-(trifluoromethyl)benzenesulfonimidamide]: the IC50 was 1 to 5 µM.

`CCOC(=O)NS(=O)(=Nc1c[nH]c2ccccc12)c1ccc(C(F)(F)F)cc1` (stereo not drawn) [Compound 103]: the IC50 was in the range of 5 to 100 µM. In turn, `CCCCc1ccc(S(N)(=O)=Nc2c[nH]c3ncc(F)cc23)cc1` (racemic) [Compound 116] registered an IC50 of 5 to 100 µM. The same measure, in the same setting: the same measure for `COC(=O)NS(=O)(=Nc1c[nH]c2ccccc12)c1ccc(C(F)(F)F)cc1` (stereo not drawn) [Compound 107, methyl (N-(1H-indol-3-yl)-4-(trifluoromethyl)phenylsulfonimidoyl)carbamate]: 5 to 100 µM. In turn, `Cc1ccccc1S(N)(=O)=Nc1c[nH]c2ccccc12` (stereo not drawn) [Compound 110] came in with an IC50 of 5 to 100 µM. Regarding `N#Cc1cnc2[nH]cc(N=S(N)(=O)c3ccc(C(F)(F)F)cc3)c2c1` (racemic) [Compound 114a], the IC50 fell in the range of 5 to 100 µM.

Staying with this assay, now noted: Homo sapiens, THP1-Dual, 24 h, 15 μM 2'3'cGAMP, given as numeric bound.
As to `N#Cc1cnc2[nH]cc(N=S(N)(=O)c3ccc(C(F)(F)F)cc3)c2c1` (racemic) [Compound 114b], the IC50 is at least 100 µM.

On to `NS(=O)(=Nc1c[nH]nc1-c1ccccc1)c1ccc(C(F)(F)F)cc1` (racemic) [Compound 119a], for which the IC50 is at least 100 µM. Still for that read-out and setting: the same measure for `NS(=O)(=Nc1c[nH]nc1-c1ccccc1)c1ccc(C(F)(F)F)cc1` (stereo not drawn) [Compound 119]: at least 100 µM.

As a reminder, the IC50 is the midpoint of a concentration-inhibition curve. A lower IC50 goes with higher potency.
